These results are taken from patent publication US9732075B2, “Benzimidazole-proline derivatives” (IDORSIA PHARMACEUTICALS LTD, priority 2012, dated 2017).

One assay concerns the target human orexin-2 receptor (Homo sapiens (Human), UniProt O43614). Put plainly: In vitro assay: intracellular calcium measurements (FLIPR), antagonistic activity. Format: cell-based. Conditions: CHO cells expressing human orexin-2 receptor, orexin-A agonist, geometric mean, read-out: IC50 Ox2. The method, boiled down:
(§1)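 Orexin-A-evoked calcium rise (3 nM final, roughly EC70) was recorded with fluo-4 in recombinant CHO cells, human receptor subtype 1 or 2.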
Background: Calcium assays in cells follow changes in intracellular calcium, usually with a dye or a luminescent sensor.

For a further assay, the target named is human orexin-1 receptor (Homo sapiens (Human), UniProt O43613). Described as above. Type of assay: cell-based. To be noted: CHO cells expressing human orexin-1 receptor, orexin-A agonist, geometric mean, read-out: IC50 Ox1. The method, boiled down: as §1
Chain of human orexin-1 receptor (O43613 whole entry): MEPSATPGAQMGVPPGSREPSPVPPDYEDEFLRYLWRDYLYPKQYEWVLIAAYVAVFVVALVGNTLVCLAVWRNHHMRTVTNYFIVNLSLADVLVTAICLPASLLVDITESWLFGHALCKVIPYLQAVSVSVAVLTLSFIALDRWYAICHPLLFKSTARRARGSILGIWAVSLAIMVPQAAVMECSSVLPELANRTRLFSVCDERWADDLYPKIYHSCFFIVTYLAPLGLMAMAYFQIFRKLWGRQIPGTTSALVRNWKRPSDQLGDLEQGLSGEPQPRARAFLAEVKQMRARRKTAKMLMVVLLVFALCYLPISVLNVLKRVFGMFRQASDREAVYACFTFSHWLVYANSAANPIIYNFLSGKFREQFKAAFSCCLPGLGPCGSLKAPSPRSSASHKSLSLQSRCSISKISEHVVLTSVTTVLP

Chain of human orexin-2 receptor (O43614 whole entry): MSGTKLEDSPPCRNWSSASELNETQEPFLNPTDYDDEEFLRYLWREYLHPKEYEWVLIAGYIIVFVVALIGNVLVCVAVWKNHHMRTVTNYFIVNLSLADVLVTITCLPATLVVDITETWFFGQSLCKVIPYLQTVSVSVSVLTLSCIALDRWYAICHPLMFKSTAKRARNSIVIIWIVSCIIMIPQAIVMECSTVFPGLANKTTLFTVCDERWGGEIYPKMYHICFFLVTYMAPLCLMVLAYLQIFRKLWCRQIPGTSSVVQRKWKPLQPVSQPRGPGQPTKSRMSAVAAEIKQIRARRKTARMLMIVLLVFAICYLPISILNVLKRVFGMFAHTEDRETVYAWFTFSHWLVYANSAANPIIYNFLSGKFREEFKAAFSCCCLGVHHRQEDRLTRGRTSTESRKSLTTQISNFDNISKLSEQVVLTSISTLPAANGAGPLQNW

For `Cc1ccc(-n2nccn2)c(C(=O)N2CCC[C@@]2(C)c2nc3cc(C(F)(F)F)ccc3[nH]2)n1` [Ex. 5.178], the IC50 (as a rule, the concentration that gives 50% inhibition) amounted to 280 nM on human orexin-2 receptor and 20 nM at human orexin-1 receptor.

`Cc1ccc(-c2ncccn2)c(C(=O)N2CCC[C@@]2(C)c2nc3c(C)c(Cl)ccc3[nH]2)c1` [Ex. 5.214]: the IC50 is 4 nM at human orexin-2 receptor and 2 nM at human orexin-1 receptor.

As to `Cc1ccc(-c2ccccc2F)c(C(=O)N2CCC[C@@]2(C)c2nc3cc(C)c(C)cc3n2CC2CC2)c1` [Ex. 7.50], the figures for the IC50 at human orexin-2 receptor and at human orexin-1 receptor were 171 nM and 66 nM, respectively.

Turning to `CO[C@H]1C[C@@H](c2nc3c(C)cccc3[nH]2)N(C(=O)c2nc(C)sc2-c2ccccc2)C1` [Ex. 3.3], the IC50 amounted to 255 nM on human orexin-2 receptor and 1290 nM at human orexin-1 receptor.

`CSc1ccc2[nH]c([C@@H]3CCCN3C(=O)c3cc(C)ccc3-n3nccn3)nc2c1` [Ex. 1.7]: the IC50 on human orexin-2 receptor was 5 nM; on human orexin-1 receptor, 93 nM.

In the case of `COc1cc2nc(C3CCCN3C(=O)c3nc(C)sc3-c3cccc(Cl)c3)[nH]c2cc1OC` (stereo not drawn) [Ex. 1.110], the figures for the IC50 at human orexin-2 receptor and at human orexin-1 receptor were 46 nM and 164 nM, respectively.

Take `Cc1nc(C(=O)N2CCC[C@@]2(C)c2nc3c(C)c(Cl)ccc3n2C)c(-c2cccc(Cl)c2)s1` [Ex. 7.33]: the IC50 on human orexin-2 receptor was 3 nM; at human orexin-1 receptor, 1 nM.

Turning to `Cc1ccc(-c2ccccc2F)c(C(=O)N2CCC[C@@]2(C)c2nc3cc(C)c(C)cc3[nH]2)c1` [Ex. 5.95], the IC50 at human orexin-2 receptor is 29 nM; at human orexin-1 receptor it was 11 nM.

In the case of `Cc1c(Cl)ccc2[nH]c([C@]3(C)CCCN3C(=O)c3cc(F)ccc3-c3ncccn3)nc12` [Ex. 5.224], the IC50 at human orexin-2 receptor came to 21 nM; at human orexin-1 receptor, 7 nM.

As to `Cc1ccc(-c2cccc(C(F)(F)F)c2)c(C(=O)N2CCC[C@@]2(C)c2nc3cc(C(F)(F)F)ccc3[nH]2)c1` [Ex. 5.195], the IC50 at human orexin-2 receptor was determined as 102 nM; on human orexin-1 receptor, 73 nM.

Take `COc1ccc(-c2ccc(C)cc2C(=O)N2CCC[C@@]2(C)c2nc3cc(C)c(C)cc3[nH]2)cc1` [Ex. 5.94]: the IC50 at human orexin-2 receptor amounted to 37 nM; on human orexin-1 receptor, 14 nM.

Regarding `Cc1nc(C(=O)N2CC[C@H](C)[C@H]2c2nc3c(C(F)(F)F)cccc3[nH]2)c(-c2ccc(C)c(C)c2)s1` [Ex. 4.152], the IC50 came out at 40 nM at human orexin-2 receptor and 2 nM on human orexin-1 receptor.

As to `CSc1ccc2nc([C@@H]3CCCN3C(=O)c3cc(C#N)ccc3-n3nccn3)[nH]c2c1` [Ex. 1.152], the results for the IC50 at human orexin-2 receptor and at human orexin-1 receptor were 23 nM and 282 nM, respectively.

`CO[C@H]1CN(C(=O)c2nc(C)sc2-c2ccccc2)C(C)(c2nc3c(C)c(Cl)ccc3[nH]2)C1` (stereo partly drawn) [Ex. 3.24]: the figures for the half-inhibitory concentration (IC50) at human orexin-2 receptor and on human orexin-1 receptor were 12 nM and 5 nM, respectively.

Take `Cc1nc(C(=O)N2CCCC2c2nc3cc(Cl)c(C)cc3[nH]2)c(-c2cccc(Cl)c2)s1` (stereo not drawn) [Ex. 1.101]: the IC50 on human orexin-2 receptor came to 50 nM; at human orexin-1 receptor, 21 nM.

For the compound `Cc1cccc(-c2ccc(C)cc2C(=O)N2CCC[C@@]2(C)c2nc3cc(C(F)(F)F)ccc3[nH]2)c1` [Ex. 5.189], the results for the IC50 on human orexin-2 receptor and at human orexin-1 receptor were 62 nM and 16 nM, respectively.

Regarding `COc1ccc2nc([C@@H]3[C@@H](C)CCN3C(=O)c3nc(C)sc3-c3cccc(Cl)c3)[nH]c2c1` [Ex. 4.26], the IC50 at human orexin-2 receptor turned out to be 2280 nM; at human orexin-1 receptor it was 17 nM.

For the compound `Cc1ccc(-c2ccccc2C(=O)N2CC[C@H](C)[C@H]2c2nc3cc(C)c(C)cc3[nH]2)cc1` [Ex. 4.86], the half-inhibitory concentration (IC50) came to 352 nM on human orexin-2 receptor and 7 nM at human orexin-1 receptor.

In the case of `C[C@@]1(c2nc3cc(C(F)(F)F)ccc3[nH]2)CCCN1C(=O)c1cc(Br)ccc1-c1ccccc1` [Ex. 5.262], the results for the IC50 on human orexin-2 receptor and at human orexin-1 receptor were 1 nM and 113 nM, respectively.

For `CO[C@H]1CN(C(=O)c2ccccc2-n2cccn2)C(C)(c2nc3c(C)c(Cl)ccc3[nH]2)C1` (stereo partly drawn) [Ex. 3.54], the IC50 stood at 44 nM at human orexin-2 receptor and 52 nM at human orexin-1 receptor.

Turning to `CO[C@H]1CN(C(=O)c2c(-n3nccn3)ccc(C)c2F)C(C)(c2nc3c(C)c(Cl)ccc3[nH]2)C1` (stereo partly drawn) [Ex. 3.47], the IC50 on human orexin-2 receptor amounted to 471 nM; on human orexin-1 receptor, 225 nM.
